pKi: −log10 of the molar value.
Key:
[1] = target: TRPA1 (Transient Receptor potential A1) channels (Homo sapiens, UniProt O75762); conditions: among phytocannabinoids; cited from earlier work
[2] = Welfare observations in OIPN study; assay type: in vivo, C57BL/6J mice; conditions: CBC 20 mg/kg p.o., OIPN mice
From the text: Seven mice were disqualified from further study due to showing too mild cool allodynia.

[3] = test system: SNL-induced mechanical hypersensitivity; assay: Tactile allodynia test (electronic von Frey, evF) in spinal nerve ligation (SNL) model; assay type: in vivo, Sprague-Dawley rats; conditions: for evF, Vehicle vs. treatment: Summary / evF, Vehicle vs. treatment: Predicted (LS) mean diff.: between groups; for evF, Vehicle vs. treatment: Predicted (LS) mean diff. / evF, Pre-Dosing vs. 2 h-PD: Predicted (LS) mean diff. / evF, Pre-Dosing vs. 4 h-PD: Predicted (LS) mean diff. / evF, Pre-Dosing vs. 8 h-PD: Predicted (LS) mean diff. / evF, Pre-Dosing vs. 24 h-PD: Predicted (LS) mean diff.: PWT % from baseline; for Post-SNL vs. BL: Predicted (LS) mean diff.: evF PWT % from baseline; for Post-SNL vs. BL: Predicted (LS) mean diff. / Post-SNL vs. BL: Significant? / Post-SNL vs. BL: Summary: baseline vs. D7 (pre-dosing, before treatment); for Post-SNL vs. BL: Predicted (LS) mean diff. / Post-SNL vs. BL: Significant? / Post-SNL vs. BL: Summary / evF, Pre-Dosing vs. 2 h-PD: Summary / evF, Pre-Dosing vs. 4 h-PD: Summary / evF, Pre-Dosing vs. 8 h-PD: Summary / evF, Pre-Dosing vs. 24 h-PD: Summary / evF, Pre-Dosing vs. 2 h-PD: Predicted (LS) mean diff. / evF, Pre-Dosing vs. 4 h-PD: Predicted (LS) mean diff. / evF, Pre-Dosing vs. 8 h-PD: Predicted (LS) mean diff. / evF, Pre-Dosing vs. 24 h-PD: Predicted (LS) mean diff.: within group; for duration of prolonged anti-nociceptive effect after one-time administration / Post-SNL vs. BL: Significant? / Post-SNL vs. BL: Summary: evF; for AUC of % PWT curve, Vehicle vs. treatment: Mean Diff. / AUC of % PWT curve, Vehicle vs. treatment: Summary: pre-dosing to 24 h PD; for evF, Pre-Dosing vs. 24 h-PD: Summary / evF, Pre-Dosing vs. 24 h-PD: Predicted (LS) mean diff.: pregabalin 50 mg/kg i.p. re-dosed 2 h before evF on D9
Description: The treatment groups received the following test article mixtures: • Group 1: treated with vehicle (0.9% saline) • Group 2: treated with Pregabalin (50 mg/kg) • Group 3: treated with CBC (10 mg/kg)
Administration of Treatments. CBC (cannabichromene) formulation, the vehicle, or pregabalin treatment was administered according to Table 1 on study day 8 to all study animals, and on study day 10 to 6 animals per group. The dousing route of CBC or the vehicle were intragastric (p.o.), while pregabalin was administered intraperitoneally (i.p.). In addition to D8, pregabalin was administered on D9, at 2 h prior to the evf test. All animals of the pregabalin group were euthanized on D9, following the last test trial. The CBC was dissolved and diluted to one of the following vehicles:
Spinal Nerve Ligation (SNL) Surgery. The animals were enrolled to SNL surgery in daily cohorts of n=6, according to the number of animals operated per day). The rat first received an intraperitoneal dose of 0.03 mg/kg buprenorphine (Temgesic), at minimum of 30 minutes prior to the surgery, to alleviate the operative and postoperative pain unrelated to neuropathy. The rats were anesthetized with isoflurane in 70% N2O and 30% O2; with a flow rate of 300 ml/min. Anesthesia was inducted with 5% isoflurane for 2-3 min, and maintained through a snout mask with 1-2% isoflurane thereafter.
A dorsal incision extending from L3 to S2 was performed to the medial dorsal area of the rat using aseptic technique. The L6/S1 posterior intrarticular process was exposed using a combination of blunt and sharp dissection. The L6 transverse process in the spinal column was visualized and partially removed without manipulating the nerves, followed by exposing the L4 and L5 spinal nerves distal to their emergence from the intervertebral foramina. Tight double knots of 6-0 silk suture were placed on both spinal nerves.
Tactile Allodynia Test (evF). In this study, mechanical sensitivity to punctate stimulus was defined at six time points, by using electronic von Frey (evF) device with the attached analysis software (Somedic®, Sweden).
Rats displaying inborn oversensitivity were disqualified from the study. Oversensitivity was defined as baseline paw withdrawal threshold (PWT) of <20 g with 1 mm probe. Following the baseline evF testing, the rats were weighed and numbered prior to surgery.
To perform the evF test, the rats were placed in individual von Frey test chambers standing on an elevated steel mesh. The rats were allowed to adapt in the chambers, and the test emerged after they had settled down after investigating the chamber and grooming (approximately 15 min).
Mechanical allodynia was assessed by evF test prior to SNL surgery (baseline), to define the individual “innate” sensitivity levels of the study animals. Next, the evF was performed on D7 post-SNL, to assess the hypersensitivity evoked by the SNL surgery, and to evaluate pre-dosing sensitivity values. Next day (D8), the animals were tested by evF at 2 h, at 4 h, and at 8 h post-dosing (PD). The last evF time point occurred at 24 h PD, i.e. on D9. The listed post-dosing times were used for all groups except group 2, which on D9 received pregabalin at 2 h prior to evF.
The evF apparatus was used according to the manufacturer's instructions. Briefly, upon each measurement, the force was applied to mid-plantar surface of the hind paw in a linearly increasing rate. The used evF probe diameter was 1 mm, and the chosen ascent rate of force 10 g/s. Linearity of force application was monitored real-time. The applied force (in grams) causing paw withdrawal was recorded by the
Altogether 5 repeated measurements were applied to each hind paw at each time-point, leaving a minimum of 3-min interval between the repeats. Three values closest to the median were then averaged to produce result value for each paw at any given time point. Both ipsi- and contralateral paws were tested on each test day.
Statistical Analysis. […]

[4] = target: CB2 receptors (Homo sapiens, UniProt P34972); conditions: read-out: affinity (Ki) for CB2 receptors; cited from earlier work
[5] = Body weight in OIPN study; assay type: in vivo, C57BL/6J mice; conditions: OIPN mice; CBC 20 mg/kg p.o., Duloxetine 25 mg/kg i.p.
Description: Body Weight—Animal body weights were measured before assigning the treatment groups and then on each day of the study. The last body weight measurement was performed upon endpoint sampling. Terminal body weights were not collected from animals found dead or euthanized moribund.

[6] = target: CB1 receptors (Homo sapiens, UniProt P21554); conditions: cited from earlier work
[7] = 2 h-PD, CBC 10 mg/kg p.o., pregabalin 50 mg/kg i.p.
[8] = 4 h-PD, CBC 10 mg/kg p.o., pregabalin 50 mg/kg i.p.
[9] = 8 h-PD, CBC 10 mg/kg p.o., pregabalin 50 mg/kg i.p.
[10] = 24 h-PD (D9), CBC 10 mg/kg p.o., pregabalin 50 mg/kg i.p. re-dosed 2 h before evF
[11] = CBC 10 mg/kg p.o., pregabalin 50 mg/kg i.p.

TRPA1 (Transient Receptor potential A1) channels, sequence (O75762 whole entry): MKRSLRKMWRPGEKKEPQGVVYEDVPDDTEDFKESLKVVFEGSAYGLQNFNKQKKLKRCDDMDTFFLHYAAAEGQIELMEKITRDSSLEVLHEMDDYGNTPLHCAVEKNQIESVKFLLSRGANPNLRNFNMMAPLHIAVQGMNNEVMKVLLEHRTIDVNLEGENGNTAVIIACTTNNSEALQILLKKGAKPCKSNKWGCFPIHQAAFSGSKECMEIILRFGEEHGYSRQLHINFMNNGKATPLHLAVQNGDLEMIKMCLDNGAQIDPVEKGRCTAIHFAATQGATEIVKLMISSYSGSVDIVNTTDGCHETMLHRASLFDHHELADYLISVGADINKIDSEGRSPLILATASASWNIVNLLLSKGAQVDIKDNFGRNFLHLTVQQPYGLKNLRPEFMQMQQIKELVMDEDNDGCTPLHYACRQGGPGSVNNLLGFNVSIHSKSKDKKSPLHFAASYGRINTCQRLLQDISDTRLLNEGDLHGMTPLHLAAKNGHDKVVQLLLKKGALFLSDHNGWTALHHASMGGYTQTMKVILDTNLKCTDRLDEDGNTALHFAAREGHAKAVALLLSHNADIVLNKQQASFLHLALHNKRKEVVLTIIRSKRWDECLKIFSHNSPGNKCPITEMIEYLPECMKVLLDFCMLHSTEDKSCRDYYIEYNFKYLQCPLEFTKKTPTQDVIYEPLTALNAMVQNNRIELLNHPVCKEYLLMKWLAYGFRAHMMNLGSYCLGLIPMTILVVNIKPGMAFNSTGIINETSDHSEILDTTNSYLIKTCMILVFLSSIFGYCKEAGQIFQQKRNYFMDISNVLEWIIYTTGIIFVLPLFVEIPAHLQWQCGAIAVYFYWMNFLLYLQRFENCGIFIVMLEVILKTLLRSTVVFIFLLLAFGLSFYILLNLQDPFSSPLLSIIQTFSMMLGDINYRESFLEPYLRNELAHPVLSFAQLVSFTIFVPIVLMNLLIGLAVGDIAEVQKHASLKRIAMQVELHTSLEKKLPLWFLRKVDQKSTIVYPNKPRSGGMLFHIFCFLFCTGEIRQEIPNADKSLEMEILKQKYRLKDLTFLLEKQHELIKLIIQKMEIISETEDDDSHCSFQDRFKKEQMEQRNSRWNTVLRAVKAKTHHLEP
CB1 receptors, sequence (P21554 whole entry): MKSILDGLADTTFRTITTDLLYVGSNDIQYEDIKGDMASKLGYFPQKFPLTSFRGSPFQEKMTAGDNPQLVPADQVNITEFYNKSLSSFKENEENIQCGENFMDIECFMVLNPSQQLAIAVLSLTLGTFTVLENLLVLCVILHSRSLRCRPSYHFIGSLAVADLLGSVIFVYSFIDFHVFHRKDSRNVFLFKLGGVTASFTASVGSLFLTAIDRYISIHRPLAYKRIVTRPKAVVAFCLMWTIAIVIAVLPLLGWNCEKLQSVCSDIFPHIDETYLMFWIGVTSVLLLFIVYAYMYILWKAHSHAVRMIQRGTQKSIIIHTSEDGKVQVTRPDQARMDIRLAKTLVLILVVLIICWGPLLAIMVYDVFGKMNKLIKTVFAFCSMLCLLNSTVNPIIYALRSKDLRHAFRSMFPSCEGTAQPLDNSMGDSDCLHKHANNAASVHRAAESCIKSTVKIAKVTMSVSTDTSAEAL
CB2 receptors, sequence (P34972 whole entry): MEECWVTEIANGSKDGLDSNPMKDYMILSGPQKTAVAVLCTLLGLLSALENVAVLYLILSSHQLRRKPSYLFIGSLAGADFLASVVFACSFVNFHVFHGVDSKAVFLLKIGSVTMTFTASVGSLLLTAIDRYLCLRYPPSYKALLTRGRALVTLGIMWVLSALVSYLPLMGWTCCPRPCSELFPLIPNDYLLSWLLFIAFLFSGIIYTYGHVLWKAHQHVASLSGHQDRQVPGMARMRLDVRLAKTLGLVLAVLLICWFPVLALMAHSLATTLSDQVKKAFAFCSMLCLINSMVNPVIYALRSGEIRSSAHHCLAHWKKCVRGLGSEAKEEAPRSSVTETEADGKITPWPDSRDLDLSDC

In the case of `CCCCCc1cc(O)c2c(c1)OC(C)(CCC=C(C)C)C=C2` (stereo not drawn) [CBC, cannabichromene], the “agonist potency at TRPA1 channels” value [1] is given as “most potent agonist of all the phytocannabinoids”, the adverse effects [2] is given as “no hyper-reactivity or psychoactive adverse effects” and the “evF, Vehicle vs. treatment: Summary” value [3, 7] is given as “ns”. The “evF, Vehicle vs. treatment: Predicted (LS) mean diff.” value (“evF, Vehicle vs. treatment: Predicted” below) [3, 7] was −15.45, the “evF, Vehicle vs. treatment: Summary” value [3, 8] was “ns” and the “evF, Vehicle vs. treatment: Predicted” value [3, 8] was −10.25. For the same compound, the “evF, Vehicle vs. treatment: Summary” value [3, 9] was “ns”, the “evF, Vehicle vs. treatment: Predicted” value [3, 9] was −17.12 and the “evF, Vehicle vs. treatment: Summary” value [3, 10] was “ns”. For the same compound, the “evF, Vehicle vs. treatment: Predicted” value [3, 10] was −14.84, the “effect on SNL-induced hypersensitivity (evF), between-group” value ([3]; CBC 10 mg/kg p.o.) was “appears to evoke a trend of reversing hypersensitivity” and the “evF, Vehicle vs. treatment: Summary” value ([3]; Pre-Dosing (D7)) was “ns”. The “evF, Vehicle vs. treatment: Predicted” value ([3]; Pre-Dosing (D7)) was −0.627, the “Post-SNL vs. BL: Predicted (LS) mean diff.” value [3] was 45.98 and the “duration of prolonged anti-nociceptive effect after one-time administration” value [3, 11] was “up to 8 hours”. For the same compound, the “Post-SNL vs. BL: Significant?” value [3] was “Yes”, the “Post-SNL vs. BL: Summary” value [3] was “**** (p<0.0001, extremely/highly significant)” and the “AUC of % PWT curve, Vehicle vs. treatment: Mean Diff.” value [3, 11] was −50.00. The “AUC of % PWT curve, Vehicle vs. treatment: Summary” value [3, 11] was “** (p<0.01, very significant)”, the “evF, Pre-Dosing vs. 2 h-PD: Summary” value [3, 11] was “*** (p<0.001, extremely/highly significant)” and the “evF, Pre-Dosing vs. 4 h-PD: Summary” value [3, 11] was “* (p<0.05, significant)”. The “evF, Pre-Dosing vs. 8 h-PD: Summary” value [3, 11] was “* (p<0.05, significant)”, the “evF, Pre-Dosing vs. 24 h-PD: Summary” value ([3]; CBC 10 mg/kg p.o.) was “ns” and the “evF, Pre-Dosing vs. 2 h-PD: Predicted (LS) mean diff.” value [3, 11] was −29.36. For the same compound, the “evF, Pre-Dosing vs. 4 h-PD: Predicted (LS) mean diff.” value [3, 11] was −18.71, the “evF, Pre-Dosing vs. 8 h-PD: Predicted (LS) mean diff.” value [3, 11] was −19.64 and the “evF, Pre-Dosing vs. 24 h-PD: Predicted (LS) mean diff.” value ([3]; CBC 10 mg/kg p.o.) was −15.44. The pKi [4] was roughly 7.00, the “body weight development from D22 onwards” value [5] was “slower increase in body weight” and the “binds to CB1 receptors only at concentrations higher than” value [6] was “higher than 1 micromolar”.

For `CC(C)C[C@H](CN)CC(=O)O` [Pregabalin, pregabalin, reference compound], the “evF, Vehicle vs. treatment: Summary” value [3, 7] was “ns”, the “evF, Vehicle vs. treatment: Predicted” value [3, 7] was −12.08 and the “evF, Vehicle vs. treatment: Summary” value [3, 8] was “ns”. The “evF, Vehicle vs. treatment: Predicted” value [3, 8] was −0.8299, the “evF, Vehicle vs. treatment: Summary” value [3, 9] was “ns” and the “evF, Vehicle vs. treatment: Predicted” value [3, 9] was −12.91. For the same compound, the “evF, Vehicle vs. treatment: Summary” value [3, 10] was “ns”, the “evF, Vehicle vs. treatment: Predicted” value [3, 10] was −7.967 and the “evF, Vehicle vs. treatment: Summary” value ([3]; Pre-Dosing (D7)) was “ns”. For the same compound, the “evF, Vehicle vs. treatment: Predicted” value ([3]; Pre-Dosing (D7)) was −0.02247, the “Post-SNL vs. BL: Predicted (LS) mean diff.” value [3] was 46.58 and the “duration of prolonged anti-nociceptive effect after one-time administration” value [3, 11] was “not observed”. For the same compound, the “Post-SNL vs. BL: Significant?” value [3] was “Yes”, the “Post-SNL vs. BL: Summary” value [3] was “**** (p<0.0001, extremely/highly significant)” and the “AUC of % PWT curve, Vehicle vs. treatment: Mean Diff.” value [3, 11] was −29.80. For the same compound, the “AUC of % PWT curve, Vehicle vs. treatment: Summary” value [3, 11] was “• (p<0.1, an established trend towards significance)”, the “evF, Pre-Dosing vs. 2 h-PD: Summary” value [3, 11] was “*** (p<0.001, extremely/highly significant)” and the “evF, Pre-Dosing vs. 4 h-PD: Summary” value [3, 11] was “ns”. For the same compound, the “evF, Pre-Dosing vs. 8 h-PD: Summary” value [3, 11] was “ns”, the “evF, Pre-Dosing vs. 24 h-PD: Summary” value ([3]; CBC 10 mg/kg p.o.) was “ns” and the “evF, Pre-Dosing vs. 2 h-PD: Predicted (LS) mean diff.” value [3, 11] was −26.59. The “evF, Pre-Dosing vs. 4 h-PD: Predicted (LS) mean diff.” value [3, 11] was −9.891, the “evF, Pre-Dosing vs. 8 h-PD: Predicted (LS) mean diff.” value [3, 11] was −16.03 and the “evF, Pre-Dosing vs. 24 h-PD: Predicted (LS) mean diff.” value ([3]; CBC 10 mg/kg p.o.) was −9.176.
